For one compound, IC50 results are on record in publication PMC6407917, “Identification of GSK3186899/DDD853651 as a Preclinical Development Candidate for the Treatment of Visceral Leishmaniasis” (Journal of Medicinal Chemistry, 2018).

Broadly, the IC50 is the concentration that inhibits the measured activity by half. Lower therefore signals inhibition by little substance.

Targets include CSNK1D (Homo sapiens, UniProt P48730); DDR1 (Homo sapiens, UniProt Q08345); BTK (Homo sapiens, UniProt Q06187); PDIK1L (Homo sapiens, UniProt Q8N165); SERPINB2 (Homo sapiens, UniProt P05120); NRK (Homo sapiens, UniProt Q7Z2Y5); MAP3K2 (Homo sapiens, UniProt Q9Y2U5); PTK2 (Homo sapiens, UniProt Q05397); PAK4 (Homo sapiens, UniProt O96013); AXL (Homo sapiens, UniProt P30530); CAMK2A (Homo sapiens, UniProt Q9UQM7); PRKCA (Homo sapiens, UniProt P17252); MAPKAPK5 (Homo sapiens, UniProt Q8IW41); BMP2K (Homo sapiens, UniProt Q9NSY1); RIOK2 (Homo sapiens, UniProt Q9BVS4); PIP4K2C (Homo sapiens, UniProt Q8TBX8); STK4 (Homo sapiens, UniProt Q13043); PRKCB (Homo sapiens, UniProt P05771); RPS6KA4 (Homo sapiens, UniProt O75676); NLK (Homo sapiens, UniProt Q9UBE8); EPHB1 (Homo sapiens, UniProt P54762).

Holding throughout (experiment): biochemical
Holding throughout (set-up): species or system HEK293/K-562/placenta mixed human extract; Kinobeads chemoproteomic competition binding, quantified by TMT LC-MS/MS, dose response up to 20 uM

PRKCB, sequence (P05771 whole entry): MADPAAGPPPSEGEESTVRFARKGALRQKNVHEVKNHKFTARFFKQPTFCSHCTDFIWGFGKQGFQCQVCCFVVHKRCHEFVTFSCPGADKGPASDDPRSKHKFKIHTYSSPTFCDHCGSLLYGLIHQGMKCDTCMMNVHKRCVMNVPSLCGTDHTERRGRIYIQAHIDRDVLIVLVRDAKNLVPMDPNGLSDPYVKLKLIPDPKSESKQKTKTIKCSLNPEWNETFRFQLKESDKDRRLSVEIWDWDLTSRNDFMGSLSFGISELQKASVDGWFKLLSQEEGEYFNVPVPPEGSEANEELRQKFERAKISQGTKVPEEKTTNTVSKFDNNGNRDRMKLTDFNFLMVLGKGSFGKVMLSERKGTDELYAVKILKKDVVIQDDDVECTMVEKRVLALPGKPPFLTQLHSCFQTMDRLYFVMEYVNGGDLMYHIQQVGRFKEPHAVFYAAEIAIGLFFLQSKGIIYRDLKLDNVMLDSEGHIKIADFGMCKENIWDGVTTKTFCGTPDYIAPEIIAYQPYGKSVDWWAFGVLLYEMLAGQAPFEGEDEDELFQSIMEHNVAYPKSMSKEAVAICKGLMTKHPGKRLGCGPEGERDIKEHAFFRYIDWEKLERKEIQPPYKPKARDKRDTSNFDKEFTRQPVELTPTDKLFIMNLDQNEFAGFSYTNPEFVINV
MAPKAPK5, sequence (Q8IW41 whole entry): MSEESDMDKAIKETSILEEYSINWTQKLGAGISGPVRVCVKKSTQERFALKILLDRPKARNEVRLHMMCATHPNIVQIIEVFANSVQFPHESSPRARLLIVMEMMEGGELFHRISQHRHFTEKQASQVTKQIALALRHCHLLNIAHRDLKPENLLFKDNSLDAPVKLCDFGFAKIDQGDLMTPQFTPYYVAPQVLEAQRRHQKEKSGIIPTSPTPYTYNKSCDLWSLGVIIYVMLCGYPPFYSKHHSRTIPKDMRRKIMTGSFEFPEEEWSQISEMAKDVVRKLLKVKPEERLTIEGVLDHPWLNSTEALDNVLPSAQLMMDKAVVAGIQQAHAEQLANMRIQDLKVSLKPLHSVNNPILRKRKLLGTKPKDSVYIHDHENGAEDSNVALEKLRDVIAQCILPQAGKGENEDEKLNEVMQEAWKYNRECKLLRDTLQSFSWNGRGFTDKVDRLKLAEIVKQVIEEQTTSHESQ
DDR1, sequence (Q08345 whole entry): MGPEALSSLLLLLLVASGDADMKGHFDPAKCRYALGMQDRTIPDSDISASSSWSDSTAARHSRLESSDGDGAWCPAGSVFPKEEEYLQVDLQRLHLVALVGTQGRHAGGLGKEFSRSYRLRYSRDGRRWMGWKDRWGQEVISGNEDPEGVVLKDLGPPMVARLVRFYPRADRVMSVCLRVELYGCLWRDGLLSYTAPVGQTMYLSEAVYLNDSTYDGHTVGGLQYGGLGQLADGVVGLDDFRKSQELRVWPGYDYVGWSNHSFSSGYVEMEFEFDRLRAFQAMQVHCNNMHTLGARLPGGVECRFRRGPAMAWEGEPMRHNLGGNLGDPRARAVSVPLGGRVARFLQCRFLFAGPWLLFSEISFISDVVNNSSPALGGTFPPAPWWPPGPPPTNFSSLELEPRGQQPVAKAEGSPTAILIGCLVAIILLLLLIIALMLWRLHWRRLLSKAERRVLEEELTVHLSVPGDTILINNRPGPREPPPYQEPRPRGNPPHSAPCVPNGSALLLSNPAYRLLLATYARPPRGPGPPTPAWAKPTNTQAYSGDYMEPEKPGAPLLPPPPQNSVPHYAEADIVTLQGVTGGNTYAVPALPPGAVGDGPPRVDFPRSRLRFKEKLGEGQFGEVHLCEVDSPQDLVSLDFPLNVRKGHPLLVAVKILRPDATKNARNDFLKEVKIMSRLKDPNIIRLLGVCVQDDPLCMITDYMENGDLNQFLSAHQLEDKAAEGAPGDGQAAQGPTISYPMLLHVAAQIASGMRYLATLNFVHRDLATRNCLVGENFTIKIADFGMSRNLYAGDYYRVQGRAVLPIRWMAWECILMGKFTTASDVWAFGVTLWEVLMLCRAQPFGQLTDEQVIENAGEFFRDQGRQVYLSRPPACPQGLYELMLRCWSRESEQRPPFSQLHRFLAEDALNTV
RPS6KA4, sequence (O75676 whole entry): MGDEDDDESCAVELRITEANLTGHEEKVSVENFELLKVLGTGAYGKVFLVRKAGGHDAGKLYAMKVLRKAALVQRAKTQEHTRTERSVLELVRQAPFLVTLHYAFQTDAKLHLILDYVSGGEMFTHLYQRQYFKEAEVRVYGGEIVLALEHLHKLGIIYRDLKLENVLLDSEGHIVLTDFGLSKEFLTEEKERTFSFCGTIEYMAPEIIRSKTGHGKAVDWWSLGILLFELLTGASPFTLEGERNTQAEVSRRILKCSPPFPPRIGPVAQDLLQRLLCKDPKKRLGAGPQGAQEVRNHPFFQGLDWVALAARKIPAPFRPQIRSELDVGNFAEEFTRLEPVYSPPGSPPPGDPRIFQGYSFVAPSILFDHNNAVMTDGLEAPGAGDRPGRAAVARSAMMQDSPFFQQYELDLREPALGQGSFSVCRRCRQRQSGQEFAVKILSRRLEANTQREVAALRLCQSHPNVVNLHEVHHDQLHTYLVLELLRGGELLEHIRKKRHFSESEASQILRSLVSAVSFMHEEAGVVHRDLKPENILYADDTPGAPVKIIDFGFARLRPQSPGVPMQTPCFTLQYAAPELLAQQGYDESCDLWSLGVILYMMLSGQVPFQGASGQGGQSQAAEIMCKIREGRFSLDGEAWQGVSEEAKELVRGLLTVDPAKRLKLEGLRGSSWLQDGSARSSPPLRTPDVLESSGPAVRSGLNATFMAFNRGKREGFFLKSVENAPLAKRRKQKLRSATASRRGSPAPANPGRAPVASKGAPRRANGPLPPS
CSNK1D, sequence (P48730 whole entry): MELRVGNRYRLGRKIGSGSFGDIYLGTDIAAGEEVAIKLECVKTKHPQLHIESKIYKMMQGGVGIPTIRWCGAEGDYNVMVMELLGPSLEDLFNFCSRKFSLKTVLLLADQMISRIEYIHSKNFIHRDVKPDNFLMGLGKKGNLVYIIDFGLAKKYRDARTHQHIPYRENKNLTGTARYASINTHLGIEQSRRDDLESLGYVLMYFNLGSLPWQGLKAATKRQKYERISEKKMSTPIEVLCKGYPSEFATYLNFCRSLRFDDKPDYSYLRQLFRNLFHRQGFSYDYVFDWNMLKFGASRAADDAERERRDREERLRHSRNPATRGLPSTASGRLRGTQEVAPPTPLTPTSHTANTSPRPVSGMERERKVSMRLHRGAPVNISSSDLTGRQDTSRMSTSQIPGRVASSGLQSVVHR
PIP4K2C, sequence (Q8TBX8 whole entry): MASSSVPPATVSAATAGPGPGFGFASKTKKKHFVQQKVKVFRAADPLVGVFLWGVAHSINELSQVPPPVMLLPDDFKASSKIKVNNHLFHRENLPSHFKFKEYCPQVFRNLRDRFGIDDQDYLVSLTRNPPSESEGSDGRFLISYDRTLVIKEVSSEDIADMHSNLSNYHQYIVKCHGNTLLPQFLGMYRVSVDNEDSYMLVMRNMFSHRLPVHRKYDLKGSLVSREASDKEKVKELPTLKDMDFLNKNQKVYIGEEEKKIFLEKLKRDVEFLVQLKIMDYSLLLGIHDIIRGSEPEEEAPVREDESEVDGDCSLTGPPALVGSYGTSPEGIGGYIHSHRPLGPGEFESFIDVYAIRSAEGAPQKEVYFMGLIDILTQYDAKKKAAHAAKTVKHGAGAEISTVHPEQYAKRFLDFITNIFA
BTK, sequence (Q06187 whole entry): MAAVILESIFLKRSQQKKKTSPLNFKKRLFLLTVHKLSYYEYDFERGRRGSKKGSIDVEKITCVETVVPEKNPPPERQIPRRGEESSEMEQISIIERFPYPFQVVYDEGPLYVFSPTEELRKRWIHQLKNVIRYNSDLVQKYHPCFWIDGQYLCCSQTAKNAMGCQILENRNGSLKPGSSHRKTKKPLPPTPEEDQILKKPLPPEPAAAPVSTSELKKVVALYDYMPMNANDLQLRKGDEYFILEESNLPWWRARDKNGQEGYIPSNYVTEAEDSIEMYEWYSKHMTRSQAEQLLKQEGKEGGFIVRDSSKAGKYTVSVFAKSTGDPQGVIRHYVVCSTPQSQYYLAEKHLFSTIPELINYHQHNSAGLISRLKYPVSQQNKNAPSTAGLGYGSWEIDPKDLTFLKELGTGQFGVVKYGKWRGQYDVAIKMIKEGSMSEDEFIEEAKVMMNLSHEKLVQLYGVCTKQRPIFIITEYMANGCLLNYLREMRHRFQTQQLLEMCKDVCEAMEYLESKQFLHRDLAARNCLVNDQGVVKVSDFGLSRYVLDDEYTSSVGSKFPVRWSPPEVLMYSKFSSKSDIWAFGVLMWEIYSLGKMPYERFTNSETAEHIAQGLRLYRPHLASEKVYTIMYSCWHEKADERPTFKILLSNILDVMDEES

For the compound `COc1nc(N[C@H]2CC[C@H](NS(=O)(=O)CC(C)C)CC2)nc2[nH]nc(N3CCOC[C@H]3C)c12` [compound 39, N-(trans-4-((4-Methoxy-3-((R)-3-methylmorpholino)-1H-pyrazolo[3,4-d]pyrimidin-6-yl)amino)cyclohexyl)-2-methylpropane-1-sulfonamide], the 50% inhibitory concentration (IC50) on CSNK1D, at DDR1, on BTK, at PDIK1L, on SERPINB2 and on NRK was not below 20 µM in each case. The 50% inhibitory concentration (IC50) on MAP3K2, at PTK2, at PAK4, on AXL, at CAMK2A and on PRKCA was not below 20 µM each time. In addition, the IC50 at MAPKAPK5 is 6.2 µM; on BMP2K, not below 20 µM; at RIOK2 it was not below 20 µM; at PIP4K2C it was not below 20 µM; on STK4, not below 20 µM; at PRKCB, not below 20 µM. Moreover, the concentration for half-maximal inhibition (IC50) on RPS6KA4 was not below 20 µM; at NLK, 3.5 µM; on EPHB1 it was not below 20 µM.
